Measured values published in patent US7666868B2, “N-sulphonylpyrroles and their use as histone deacetylase inhibitors” (4SC AG, priority 2005, dated 2010).

The molecules below were run on HeLa cervical carcinoma cell line (assay: Cellular cytotoxicity assay (Alamar Blue / Resazurin)). Settings: Homo sapiens; HeLa cells, 48 hours incubation; read-out: IC50 (anti-proliferative/cytotoxic potency).
Type: cell-based
Protocol: The anti-proliferative activity of the histone deacetylase inhibitory compounds as described herein, is evaluated with the HeLa cervical carcinoma cell line (ATCC CCL2) using the Alamar Blue (Resazurin) cell viability assay (O'Brien et al. Eur J Biochem 267, 5421-5426, 2000). Resazurin is reduced to the fluorescent resorufin by cellular dehydrogenase activity, correlating with viable, proliferating cells. Test compounds are dissolved as 10 mM solutions in dimethylsulfoxide (DMSO) and subsequently diluted in semi-logarithmic steps. HeLa cells are seeded into 96 well flat bottom plates at a density of 3000 cells per well in a volume of 200 μl per well. 24 hours after seeding 1 μl each of the compound dilutions are added into each well of the 96 Well plate. Each compound dilution is tested as quadruplicates. Wells containing untreated control cells are filled with 200 μl DMEM medium containing 0.5% v:v DMSO. The cells are then incubated with the substances for 48 hours at 37° C. in a humidified atmosphere containing 5% carbon dioxide. To determine the viability of the cells, 20 μl of an Resazurin solution (Sigma; 90 mg/l) are added. After 4 hours incubation at 37° C. the fluorescence is measured at an extinction of 544 nm and an emission of 590 nm. For the calculation of the cell viability the emission value from untreated cells is set as 100% viability and the emission rates of treated cells are set in relation to the values of untreated cells. Viabilites are expressed as % values. The corresponding IC50 values of the compounds for cytotoxic activity are determined from the concentration-effect curves by means of non-linear regression.

For `CC(=O)NCc1ccc(-c2ccc(S(=O)(=O)n3ccc(/C=C/C(=O)Nc4ccccc4N)c3)cc2)cc1` [Compound 97, (E)-3-{1-[4′-(Acetylamino-methyl)-biphenyl-4-sulfonyl]-1H-pyrrol-3-yl}-N-(2-amino-phenyl)-acrylamide], which IC50 is on record?
The IC50 was 0.014 to 6.7 µM.

How did the IC50 turn out when `CS(=O)(=O)NCc1ccc(-c2ccc(S(=O)(=O)n3ccc(/C=C/C(=O)Nc4ccccc4N)c3)cc2)cc1` [Compound 98, (E)-N-(2-Amino-phenyl)-3-{1-[4′-(methanesulfonylamino-methyl)biphenyl-4-sulfonyl]-1H-pyrrol-3-yl}-acrylamide] was run?
The IC50 was 0.014 to 6.7 µM.

With `O=C(C=Cc1ccn(S(=O)(=O)c2ccc(-c3ccc(OCCN4CCCC4)cc3)s2)c1)NO` [Compound 99, (E)-N-Hydroxy-3-(1-{5-([4-(2-pyrrolidin-1-yl-ethoxy)-phenyl]-thiophene-2-sulfonyl}-1H-pyrrol-3-yl)-acrylamide] as the molecule, how does the IC50 read?
Its IC50 is 0.014 to 6.7 µM.

With `CN(C)S(=O)(=O)c1ccc(-c2ccc(S(=O)(=O)n3ccc(/C=C/C(=O)NO)c3)s2)cc1` [Compound 100, (E)-3-{1-[5-(4-Dimethylsulfamoyl-phenyl)-thiophene-2-sulfonyl]-1H-pyrrol-3-yl}-N-hydroxy-acrylamide] as the molecule, how does the IC50 read?
Its IC50 is 0.014 to 6.7 µM.

How did the IC50 turn out when `CS(=O)(=O)Nc1ccc(-c2cccc(S(=O)(=O)n3ccc(/C=C/C(=O)Nc4ccccc4N)c3)c2)cc1` [Compound 101, (E)-N-(2-Amino-phenyl)-3-[1-(4′-methanesulfonylamino-biphenyl-3-sulfonyl)-1H-pyrrol-3-yl]-acrylamide] was run?
Its IC50 is 0.014 to 6.7 µM.

For `CN(C)Cc1ccc(-c2cccc(S(=O)(=O)n3ccc(/C=C/C(=O)Nc4ccccc4N)c3)c2)cc1` [Compound 102, (E)-N-(2-Amino-phenyl)-3-[1-(4′-dimethylaminomethyl-biphenyl-3-sulfonyl)-1H-pyrrol-3-yl]-acrylamide], which IC50 is on record?
Its IC50 is 0.014 to 6.7 µM.

How did the IC50 turn out when `CN1CCN(c2cc(-c3ccc(S(=O)(=O)n4ccc(/C=C/C(=O)NO)c4)cn3)ccn2)CC1` [Compound 103, (E)-N-Hydroxy-3-{1-[2′-(4-methyl-piperazin-1-yl)-[2,4′]bipyridinyl-5-sulfonyl]-1H-pyrrol-3-yl}-acrylamide] was run?
The IC50 was 0.014 to 6.7 µM.

`Cn1cc(-c2ccc(S(=O)(=O)n3ccc(/C=C/C(=O)Nc4ccccc4N)c3)s2)cn1` [Compound 104, (E)-N-(2-Amino-phenyl)-3-{1-[5-(1-methyl-1H-pyrazol-4-yl)-thiophene-2-sulfonyl]-1H-pyrrol-3-yl}-acrylamide] was tested. Which IC50 did it give?
The IC50 was 0.014 to 6.7 µM.

Which IC50 does the source give for `CN(C)Cc1ccc(-c2ccc(S(=O)(=O)n3ccc(/C=C/C(=O)NO)c3)cn2)cc1` [Compound 105, (E)-3-{1-[6-(4-Dimethylaminomethyl-phenyl)-pyridine-3-sulfonyl]-1H-pyrrol-4-yl}-N-hydroxy-acrylamide] here?
Its IC50 is 0.014 to 6.7 µM.

`CN1CCN(c2cc(-c3ccc(S(=O)(=O)n4ccc(/C=C/C(=O)Nc5ccccc5N)c4)s3)ccn2)CC1` [Compound 106, (E)-N-(2-Amino-phenyl)-3-(1-{5-[2-(4-methyl-piperazin-1-yl)-pyridin-4-yl]-thiophene-2-sulfonyl}-1H-pyrrol-3-yl)-acrylamide] was tested. Which IC50 did it give?
The IC50 was 0.014 to 6.7 µM.

For `Nc1ccccc1NC(=O)/C=C/c1ccn(S(=O)(=O)c2ccc(-c3ccc(OCCN4CCCC4)cc3)cc2)c1` [Compound 108, (E)-N-(2-Amino-phenyl)-3-{1-[4′-(2-pyrrolidin-1-yl-ethoxy)-biphenyl 4-sulfonyl]-1H-pyrrol-3-yl}-acrylamide], which IC50 is on record?
The IC50 was 0.014 to 6.7 µM.

The molecules below were run on histone H3 acetylation (lysine 9+14) in HeLa cervical carcinoma cells (assay: Cellular histone H3 acetylation assay). Settings: Homo sapiens, 24 h incubation with compound, read-out: EC50 (histone H3 acetylating cellular potency).
Type: cell-based
Description: To assess the cellular efficacy of an histone deactylase inhibitor in vitro, an assay is set up in black clear-bottom 96-well plates and optimized for use on the Cellomics “ArrayScan II” platform for a quantitative calculation of histone acetylation. The protocol uses a polyclonal rabbit antibody, specifically binding to acetylated lysine 9+14 of human histone H3 on fixed cells with an Alexa Fluor 488 labeled goat ant rabbit-IgG used for counterstaining (modified from Braunger et al. MCR annual conference 2003, Abstract 4556).
5×10^3 HeLa cervical carcinoma cells/well (ATCC CCL-2) in 200 μl Dulbecco's modified Eagle's medium (DMEM) containing 10% fetal calf serum are seeded at day 1 in Packard view plates and incubated for 24 h under standard cell culture conditions. On day 2, 2 μl test compound (100× final concentration) is added and incubation continued for further 24 h. On day 3, the culture medium is discarded and attached cells fixed for 15 min at room temperature by addition of 100 μl fixation buffer (3.7% v:v formaldehyde in phosphate buffered saline/PBS). After discarding the fixation buffer and one wash with PBS, cells are permeabilized at room temperature by addition of 100 μl/well permeabilization buffer (30.8 mM NaCl, 0.54 mM Na2HPO4, 0.31 mM KH2PO4, 5% v:v Triton X-100) for 15 min at room temperature. After discarding the permeabilization buffer and washing twice with 100 μl/well blocking solution (PBS with 0.05% v:v Tween 20 and 5% w:v milk powder) at room temperature, the 1st antibody (anti-K9+14 histone H3 antibody, Calbiochem No. 382158) in blocking solution (50 μl/well) is added. After incubation for 1 h at 37° C., the wells are washed twice at room temperature with 100 μl/well blocking solution before addition of the 2nd antibody (goat-anti-rabbit Alexa Fluor 488; MoBiTec No. A-11008) in blocking solution (50 μl/well). After further incubation for 1 h at 37° C., wells are washed twice with 100 μl/well blocking solution room temperature. Finally, 100 d/well PBS are added and image analysis performed on the Cellomics “ArrayScan II” platform. For calculation of EC50 values, the nuclear fluorescence in cells treated with and without a reference HDAC inhibitor (eg NVP-LBH-589) are taken as a positive and negative control. For EC50 determination, the percentage of positive cells is determined and EC50 calculation done from concentration-effect curves by means of non-linear regression.

How did the EC50 turn out when `O=C(/C=C/c1ccn(S(=O)(=O)c2ccc(-c3ccc(CCN4CCOCC4)cc3)cc2)c1)NO` [Compound 8, (E)-N-Hydroxy-3-{1-[4′-(2-morpholin-4-yl-ethyl)-biphenyl-4-sulfonyl]-1H-pyrrol-3-yl}-acrylamide] was run?
The EC50 was 0.027 to 4.4 µM.

Which EC50 does the source give for `O=C(/C=C/c1ccn(S(=O)(=O)c2ccc(-c3cccc(CCN4CCOCC4)c3)cc2)c1)NO` [Compound 9, (E)-N-Hydroxy-3-{1-[3′-(2-morpholin-4-yl-ethyl)-biphenyl-4-sulfonyl]-1H-pyrrol-3-yl}-acrylamide] here?
Its EC50 is 0.027 to 4.4 µM.

`Nc1ccc(-c2cccc(S(=O)(=O)n3ccc(/C=C/C(=O)NO)c3)c2)cn1` [Compound 10, (E)-3-{1-[3-(6-Amino-pyridin-3-yl)-benzenesulfonyl]-1H-pyrrol-3-yl}-N-hydroxy-acrylamide] was tested. Which EC50 did it give?
Its EC50 is 0.027 to 4.4 µM.

With `Cn1cc(-c2cccc(S(=O)(=O)n3ccc(/C=C/C(=O)NO)c3)c2)cn1` [Compound 12, (E)-N-Hydroxy-3-(1-[3-(1-methyl-1H-pyrazol-4-yl)-benzenesulfonyl]-1H-pyrrol-3-yl)-acrylamide] as the molecule, how does the EC50 read?
Its EC50 is 0.027 to 4.4 µM.

`O=C(/C=C/c1ccn(S(=O)(=O)c2cc(-c3ccccc3)ccc2CCN2CCOCC2)c1)NO` [Compound 16, (E)-N-Hydroxy-3-{1-[4-(2-morpholin-4-yl-ethyl)-biphenyl-3-sulfonyl]-1H-pyrrol-3-yl}-acrylamide] was tested. Which EC50 did it give?
The EC50 was 0.027 to 4.4 µM.

For `Nc1ccc(-c2cccc(S(=O)(=O)n3ccc(/C=C/C(=O)Nc4ccccc4N)c3)c2)cn1` [Compound 17, (E)-N-(2-Amino-phenyl)-3-{1-[3-(6-amino-pyridin-3-yl)-benzenesulfonyl]-1H-pyrrol-3-yl}-acrylamide], which EC50 is on record?
The EC50 was 0.027 to 4.4 µM.

For `Nc1ccccc1NC(=O)/C=C/c1ccn(S(=O)(=O)c2cccc(-c3cccc(CCN4CCOCC4)c3)c2)c1` [Compound 18, (E)-N-(2-Amino-phenyl)-3-{1-[3′-(2-morpholin-4-yl-ethyl)-biphenyl-3-sulfonyl]-1H-pyrrol-3-yl}-acrylamide], which EC50 is on record?
Its EC50 is 0.027 to 4.4 µM.

How did the EC50 turn out when `O=C(/C=C/c1ccn(S(=O)(=O)c2cccc(-c3cccc(CCN4CCOCC4)c3)c2)c1)NO` [Compound 20, (E)-N-Hydroxy-3-{1-[3′-(2-morpholin-4-yl-ethyl)-biphenyl-3-sulfonyl]-1H-pyrrol-3-yl}-acrylamide] was run?
Its EC50 is 0.027 to 4.4 µM.

Which EC50 does the source give for `CS(=O)(=O)Nc1ccccc1-c1ccc(S(=O)(=O)n2ccc(/C=C/C(=O)NO)c2)cc1` [Compound 21, (E)-N-Hydroxy-3-[1-(2′-methanesulfonylamino-biphenyl-4-sulfonyl)-1H-pyrrol-3-yl]-acrylamide] here?
Its EC50 is 0.027 to 4.4 µM.

For `CS(=O)(=O)Nc1cccc(-c2ccc(S(=O)(=O)n3ccc(/C=C/C(=O)NO)c3)cc2)c1` [Compound 22, (E)-N-hydroxy-3-[1-(3′-methanesulfonylamino-biphenyl-4-sulfonyl)-1H-pyrrol-3-yl]-acrylamide], which EC50 is on record?
Its EC50 is 0.027 to 4.4 µM.

With `CS(=O)(=O)Nc1ccc(-c2ccc(S(=O)(=O)n3ccc(/C=C/C(=O)NO)c3)cc2)cc1` [Compound 23, (E)-N-Hydroxy-3-[1-(4′-methanesulfonylamino-biphenyl-4-sulfonyl)-1H-pyrrol-3-yl]-acrylamide] as the molecule, how does the EC50 read?
Its EC50 is 0.027 to 4.4 µM.

`CN(C)CCNC(=O)c1ccc(-c2ccc(S(=O)(=O)n3ccc(C=CC(=O)NO)c3)cc2)cc1` [Compound 24, 4′-[3-(E)-2-Hydroxycarbamoyl-vinyl)-pyrrole-1-sulfonyl]-biphenyl-4-carboxylic acid (2-dimethylamino-othyl)-amide] was tested. Which EC50 did it give?
The EC50 was 0.027 to 4.4 µM.

For `CN(C)CCNC(=O)c1cccc(-c2ccc(S(=O)(=O)n3ccc(C=CC(=O)NO)c3)cc2)c1` [Compound 25, 4′-[3-(E)-2-Hydroxycarbamoyl-vinyl)-pyrrole-1-sulfonyl]-biphenyl-3-carboxylic acid (2-dimethylamino-ethyl)-amide], which EC50 is on record?
Its EC50 is 0.027 to 4.4 µM.

How did the EC50 turn out when `CN(C)Cc1ccc(-c2ccc(S(=O)(=O)n3ccc(/C=C/C(=O)NO)c3)cc2)cc1` [Compound 26, (E)-3-[1-(4′-Dimethylaminomethyl-biphenyl-4-sulfonyl)-1H-pyrrol-3-yl]-N-hydroxy-acrylamide] was run?
The EC50 was 0.027 to 4.4 µM.
